Key:
[1] = Stability test of crystals (storage at 70° C., 70° C./75% RH, Xe lamp; HPLC related substances and powder X-ray diffraction); details: for Physical stability / change in the crystal forms: stored at 70° C. or 70° C.·75% RH for 2 weeks
Protocol: A sample was stored with light-shielding under the condition of 70° C., 70° C.·75% RH for 2 weeks. The total amount of the related substance after storage was measured using HPLC, and the change in crystal forms was measured by means of powder X-ray diffraction.
The test drug was stored under the following conditions.
Initial (Stored under the cooling conditions): About 5 mg was collected with a 10 mL centrifuge tube and stored in a refrigerator.
70° C. (stored at 70° C.): About 5 mg was collected with a 10 mL centrifuge tube and stored in a mini-jet oven at 70° C. for 14 days.
70° C.·75% RH (stored at 70° C. and 75% relative humidity): About 5 mg was collected with a 10 mL centrifuge tube, a sample was put into a desiccator at 75% relative humidity in the open state, and the desiccator was stored in a mini jet oven at 70° C. for 14 days.
Xe lamp: This product was placed in a plastic Petri dish and stored for 40 hours under a Xe lamp (25° C. RH 60%, total irradiance 1,200,000 lx·h, total near-ultraviolet radiation energy 200 W·h/m^2 or more).
Initial, a product stored at 70° C. and a product stored at 70° C. and 75% RH were dissolved in a mixed solution (1:1) of MeCN for LC/water to exactly 10 mL, which was used as a sample solution.
HPLC; Detector: ultraviolet absorptiometer (wavelength measurement; 254 nm), column: Inertsil ODS-3 (particle diameter 3 μm, 2.1 mm×100 mm), column temperature: 40° C. (column thermostat vessel was used), mobile phase: Liquid A—1000 mL of water was added to perchlorate buffer at pH 2.5 {sodium perchlorate (NaClO4.H2O) (1.40 g) for dissolution, and adjusted to a pH of 2.5 with diluted perchloric acid (dilution of 100 mL of a commercially available 60% perchloric acid solution with 1900 mL of water)}. Liquid B—MeCN for LC, flow rate: 0.2 mL/min, Injection amount: 1 μL, (gradient setting: Liquid B 10% at 0.0 minutes to Liquid B 90% at 35 minutes).
Powder X-ray diffraction; tube: Cu, tube current: 300 mA, tube voltage, 50 kV, sampling width: 0.02°, scan speed: 4°/min, wavelength: 1.54056 angstroms, measured diffraction angle range (2θ): 2.5 to 40°

JAK3 = biological target: T1, JAK3 (Homo sapiens, UniProt P52333); details: as described in Patent Document 1; cited from earlier work
T1 sequence (P52333 1-1124): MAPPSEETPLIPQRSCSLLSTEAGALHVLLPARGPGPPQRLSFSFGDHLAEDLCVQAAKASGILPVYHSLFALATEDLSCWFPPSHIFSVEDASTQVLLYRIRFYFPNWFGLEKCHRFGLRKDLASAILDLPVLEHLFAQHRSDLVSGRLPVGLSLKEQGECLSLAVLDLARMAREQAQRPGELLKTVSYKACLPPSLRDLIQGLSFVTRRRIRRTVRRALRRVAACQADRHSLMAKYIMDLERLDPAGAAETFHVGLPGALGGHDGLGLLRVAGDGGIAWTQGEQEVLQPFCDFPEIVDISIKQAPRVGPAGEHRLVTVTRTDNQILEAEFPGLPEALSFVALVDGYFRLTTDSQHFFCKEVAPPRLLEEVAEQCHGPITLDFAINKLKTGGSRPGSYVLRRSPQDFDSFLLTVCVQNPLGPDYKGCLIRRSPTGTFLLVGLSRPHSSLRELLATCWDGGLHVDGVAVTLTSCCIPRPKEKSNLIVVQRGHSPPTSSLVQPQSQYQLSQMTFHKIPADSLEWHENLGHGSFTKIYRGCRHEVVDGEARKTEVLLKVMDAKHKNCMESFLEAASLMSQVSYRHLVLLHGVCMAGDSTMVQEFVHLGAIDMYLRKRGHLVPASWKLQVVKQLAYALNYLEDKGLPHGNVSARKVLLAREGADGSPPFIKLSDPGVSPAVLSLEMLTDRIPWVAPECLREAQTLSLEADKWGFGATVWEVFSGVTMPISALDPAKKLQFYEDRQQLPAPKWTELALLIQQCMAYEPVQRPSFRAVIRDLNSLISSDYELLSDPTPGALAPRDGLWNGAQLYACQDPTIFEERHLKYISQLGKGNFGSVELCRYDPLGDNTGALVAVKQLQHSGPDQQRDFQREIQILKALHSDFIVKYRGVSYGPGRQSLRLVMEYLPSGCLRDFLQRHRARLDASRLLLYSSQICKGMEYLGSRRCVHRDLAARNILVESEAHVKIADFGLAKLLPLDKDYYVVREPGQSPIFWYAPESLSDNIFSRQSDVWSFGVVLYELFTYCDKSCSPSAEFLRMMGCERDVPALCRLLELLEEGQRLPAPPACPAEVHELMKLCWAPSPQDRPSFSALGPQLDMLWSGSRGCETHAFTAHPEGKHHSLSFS

[2] = Solubility measured with a 80% aqueous EtOH solution; format: physicochemical; details: organic solvent or mixture
Protocol: The solubility was measured with a 80% aqueous EtOH solution. Further, the crystals of 0.5 L-tartrate and lactate were prepared as crystallized from a crystallization solvent described in Tables below.

[3] = stirred at room temperature in a 84% EtOH solution
Source text: The Form A61 crystals were stirred at room temperature and transition of crystal forms was attempted in a 84% EtOH solution.

[4] = Solubility test in 84% aqueous EtOH solution; format: physicochemical
Protocol: After stirring, the supernatant was filtered and the concentration of the filtrate was quantified by means of HPLC.
HPLC; Columns to be charged: Unison UK Phenyl (manufactured by Imtakt Corporation), particle diameter 3 μm, 4.6 mm×250 mm
Mobile phase: perchlorate buffer at pH 2.5 (0.01 mol/L)^(note)/mixed solution with MeCN for LC (4:1),
Flow rate of mobile phase: about 1.0 mL/min. Detector: ultraviolet absorptiometer (wavelength for measurement: 235 nm), column temperature: 50° C. (column thermostat vessel was used)

[5] = 70° C. 75% RH, 2 weeks, Table 1, hydrobromide
[6] = 70° C., 2 weeks, Table 1, hydrobromide
[7] = Initial (stored in a refrigerator), Table 1, hydrobromide
[8] = Xe lump 40H, Table 1, hydrobromide
[9] = 70° C. 75% RH, 2 weeks, Table 1
[10] = Initial (stored in a refrigerator), Table 1

In the case of `NC(=O)c1cnc2[nH]ccc2c1N[C@@H]1[C@@H]2CC3C[C@H]1C[C@@](O)(C3)C2` [Ex. 121, 4-{[(1R,2s,3S,5s,7s)-5-hydroxy-2-adamantyl]amino}-1H-pyrrolo[2,3-b]pyridine-5-carboxamide], the “Stability with respect to temperature and humidity” value ([1]; crystallized free form) is given as “not stable with respect to temperature and humidity even when crystallized” and the JAK3 inhibitory activity (JAK3) is given as “excellent activity”.

For `NC(=O)c1cnc2[nH]ccc2c1N[C@@H]1[C@@H]2CC3C[C@H]1C[C@@](O)(C3)C2` [Form A01, 4-{[(1R,2s,3S,5s,7s)-5-hydroxy-2-adamantyl]amino}-1H-pyrrolo[2,3-b]pyridine-5-carboxamide monohydrate, reference compound], the “Change of crystal on storage” value ([1]; no humidity at 70° C.) was “transition to an anhydride in a free form” and the Solubility [2] was less than 10 mg/mL.

In the case of `NC(=O)c1cnc2[nH]ccc2c1N[C@@H]1[C@@H]2C[C@@H]3C[C@H]1C[C@@](O)(C3)C2.O=C(O)CCC(=O)O` [Form A24, 4-{[(1R,2s,3S,5s,7s)-5-hydroxy-2-adamantyl]amino}-1H-pyrrolo[2,3-b]pyridine-5-carboxamide succinate], the “LC: total amount of the related substances” value (“LC: total amount” below) ([1]; 70° C. 2 W, Table 3) is reported as 0.19%, the “LC: total amount” value ([1]; 70° C. 75% RH 2 W, Table 3) is reported as 0.25% and the “LC: total amount” value ([1]; Initial, Table 3) is reported as 0.25%. For the same molecule, the “LC: total amount” value ([1]; Xe lump 40H, Table 3) was 0.19%.

In the case of `Cl.NC(=O)c1cnc2[nH]ccc2c1N[C@@H]1[C@@H]2C[C@@H]3C[C@H]1C[C@@](O)(C3)C2` [Form A33, 4-{[(1R,2s,3S,5s,7s)-5-hydroxy-2-adamantyl]amino}-1H-pyrrolo[2,3-b]pyridine-5-carboxamide monohydrochloride], the “LC: total amount” value ([1]; 70° C. 2 W, Table 3) is reported as 0.48%, the “LC: total amount” value ([1]; 70° C. 75% RH 2 W, Table 3) is reported as 0.48% and the “LC: total amount” value ([1]; Initial, Table 3) is reported as 0.49%. The “LC: total amount” value ([1]; Xe lump 40H, Table 3) was 0.79%.

For `Cl.NC(=O)c1cnc2[nH]ccc2c1N[C@@H]1[C@@H]2C[C@@H]3C[C@H]1C[C@@](O)(C3)C2.O` [Form A34, 4-{[(1R,2s,3S,5s,7s)-5-hydroxy-2-adamantyl]amino}-1H-pyrrolo[2,3-b]pyridine-5-carboxamide monohydrochloride hydrate], the “LC: total amount” value ([1]; 70° C. 2 W, Table 3) was 0.10%, the “LC: total amount” value ([1]; 70° C. 75% RH 2 W, Table 3) was 0.10% and the “LC: total amount” value ([1]; Initial, Table 3) was 0.10%. The “LC: total amount” value ([1]; Xe lump 40H, Table 3) was 0.30%.

In the case of `Br.NC(=O)c1cnc2[nH]ccc2c1N[C@@H]1[C@@H]2C[C@@H]3C[C@H]1C[C@@](O)(C3)C2` [Form A36, 4-{[(1R,2s,3S,5s,7s)-5-hydroxy-2-adamantyl]amino}-1H-pyrrolo[2,3-b]pyridine-5-carboxamide monohydrobromide], the “LC: total amount” value ([1]; 70° C. 75% RH, 2 weeks, Table 1, monohydrobromide) is reported as 0.28%, the “LC: total amount” value ([1]; 70° C., 2 weeks, Table 1, monohydrobromide) is reported as 0.34% and the “LC: total amount” value ([1]; Initial (stored in a refrigerator), Table 1, monohydrobromide) is reported as 0.43%. The “LC: total amount” value ([1]; Xe lump 40H, Table 1, monohydrobromide) was 0.76%.

For `Br.NC(=O)c1cnc2[nH]ccc2c1N[C@@H]1[C@@H]2C[C@@H]3C[C@H]1C[C@@](O)(C3)C2` [Form A61, 4-{[(1R,2s,3S,5s,7s)-5-hydroxy-2-adamantyl]amino}-1H-pyrrolo[2,3-b]pyridine-5-carboxamide hydrobromide], the “LC: total amount” value [1, 5] was 0.43%, the “LC: total amount” value [1, 6] was 0.44% and the “LC: total amount” value [1, 7] was 0.44%. For the same molecule, the “LC: total amount” value [1, 8] was 0.77%, the “Physical stability / change in the crystal forms” value (“Physical stability / change” for short) [1] was “physically stable” and the “Transition of crystal form” value [3] was “underwent transition to a Form B45 after 4 hours”. The Solubility ([4]; 25° C., hydrobromide) was 37.2 mg/mL, the Solubility ([4]; 35° C., hydrobromide) was 45.5 mg/mL and the Solubility ([4]; 50° C., hydrobromide) was 53.8 mg/mL.

With `Br.NC(=O)c1cnc2[nH]ccc2c1N[C@@H]1[C@@H]2C[C@@H]3C[C@H]1C[C@@](O)(C3)C2` [Form A87, 4-{[(1R,2s,3S,5s,7s)-5-hydroxy-2-adamantyl]amino}-1H-pyrrolo[2,3-b]pyridine-5-carboxamide hydrobromide] the “LC: total amount” value [1, 5] was 1.51%, the “LC: total amount” value [1, 6] was 1.64% and the “LC: total amount” value [1, 7] was 1.60%. The “LC: total amount” value [1, 8] was 1.32%, the “Physical stability / change” value [1] was “physically stable” and the Solubility ([4]; 25° C., hydrobromide) was 36.8 mg/mL. It also gave a Solubility ([4]; 35° C., hydrobromide) of 46.0 mg/mL and a Solubility ([4]; 50° C., hydrobromide) of 48.9 mg/mL.

With `Br.NC(=O)c1cnc2[nH]ccc2c1N[C@@H]1[C@@H]2C[C@@H]3C[C@H]1C[C@@](O)(C3)C2.O` [Form B11, 4-{[(1R,2s,3S,5s,7s)-5-hydroxy-2-adamantyl]amino}-1H-pyrrolo[2,3-b]pyridine-5-carboxamide hydrobromide monohydrate] the “LC: total amount” value [1, 9] was 0.43%, the “LC: total amount” value ([1]; 70° C., 2 weeks, Table 1) was 0.43% and the “LC: total amount” value [1, 10] was 0.43%. The “LC: total amount” value ([1]; Xe lump 40H, Table 1) was 0.48%, the Solubility ([4]; 25° C.) was 35.0 mg/mL and the Solubility ([4]; 35° C.) was 44.1 mg/mL. For the same molecule, the Solubility ([4]; 50° C.) was 60.1 mg/mL.

For `Br.NC(=O)c1cnc2[nH]ccc2c1N[C@@H]1[C@@H]2C[C@@H]3C[C@H]1C[C@@](O)(C3)C2.O.O` [Form B21, 4-{[(1R,2s,3S,5s,7s)-5-hydroxy-2-adamantyl]amino}-1H-pyrrolo[2,3-b]pyridine-5-carboxamide hydrobromide dihydrate], the “LC: total amount” value [1, 9] was 0.05%, the “LC: total amount” value ([1]; 70° C., 2 weeks, Table 1) was 0.05% and the “LC: total amount” value [1, 10] was 0.00%. For the same molecule, the “LC: total amount” value ([1]; Xe lump 40H, Table 1) was 0.05%, the Solubility ([4]; 25° C.) was 36.1 mg/mL and the Solubility ([4]; 35° C.) was 46.3 mg/mL. For the same molecule, the Solubility ([4]; 50° C.) was 58.2 mg/mL.

For `Br.NC(=O)c1cnc2[nH]ccc2c1N[C@@H]1[C@@H]2C[C@@H]3C[C@H]1C[C@@](O)(C3)C2` [Form B45, 4-{[(1R,2s,3S,5s,7s)-5-hydroxy-2-adamantyl]amino}-1H-pyrrolo[2,3-b]pyridine-5-carboxamide hydrobromide], the “LC: total amount” value [1, 5] was 0.11%, the “LC: total amount” value [1, 6] was 0.11% and the “LC: total amount” value [1, 7] was 0.11%. For the same molecule, the “LC: total amount” value [1, 8] was 0.11%, the “Physical stability / change” value [1] was “physically stable” and the “Solubility rank among crystal forms” value [4] was “lowest solubility crystal form”. It also gave a Solubility ([4]; 25° C., hydrobromide) of 23.7 mg/mL, a Solubility ([4]; 35° C., hydrobromide) of 29.4 mg/mL and a Solubility ([4]; 50° C., hydrobromide) of 36.7 mg/mL.

For `NC(=O)c1cnc2[nH]ccc2c1N[C@@H]1[C@@H]2CC3C[C@H]1C[C@@](O)(C3)C2` [anhydride in a free form, reference compound], the “Change of crystal on storage” value ([1]; with humidity at 70° C.) was “changed to hydrate”.

With `Br.NC(=O)c1cnc2[nH]ccc2c1N[C@@H]1[C@@H]2C[C@@H]3C[C@H]1C[C@@](O)(C3)C2` [hydrobromide, 4-{[(1R,2s,3S,5s,7s)-5-hydroxy-2-adamantyl]amino}-1H-pyrrolo[2,3-b]pyridine-5-carboxamide hydrobromide] the “Storage stability in a solid state” value [1] was “excellent storage stability in a solid state”.

Source: patent US8779140B2, “Crystal of fused pyridine compound salt” (Astellas Pharma Inc., priority 2010, dated 2014)
